Experimental data as given in BindingDB's records for doi:10.1021/acschembio.6b01133 (Merck & Co. Inc, 2017).
Several values for one entry are separate records, joined by “and”; a condition that tells them apart may be missing. Equal entries are not always repeated.

Key:
Assay in all cases: RNAP-Inhibition Assay
Conditions in all cases: 37 °C
[1] = target: DNA-directed RNA polymerase subunit beta (Escherichia coli (strain K12), UniProt P0A8V2)
Description: (§1) Fluorescence-detected RNAP inhibition assays in Tables 1 and 4 were performed using a DNA fragment containing the lacUV5 promoter as a template and the profluorescent ATP analog γ-[2′-(2-benzothiazoyl)-6′-hydroxybenzothiazole]-ATP(BBT-ATP, Jena Biosciences) as a substrate (methods as in ref 32). Fluorescence-detected RNAP inhibition assays in Figure 2C were performed essentially as described in refs 33 and 34. The assay used a proprietary circular single-stranded DNA as a template (Kool NC-45 Universal RNAP Template, Epicenter). […] A total of 5 μL of 20 nM recombinant RNAP in assay buffer [50 mM HEPES (pH = 8.0), 50 mM KCl, 4 mM MgCl2, 5% glycerol (v/v), 1 mM DTT, 0.1 mg mL−1 BSA, and 0.01% Triton X-100 (v/v)] was then added. After a 30 min incubation at RT, 5 μL of assay buffer solution containing 0.04 ng/μL DNA template and rNTPs (ATP, CTP, GTP, UTP; 600 μM each; Lucigen) was added to start the reaction. After incubation for 2 h at 37 °C, 70 μL of Quant-iT RiboGreen RNA Reagent [1:350 dilution in buffer containing 10 mM Tris-HCl (pH = 7.5) and 1 mM EDTA] was added to stop the reaction and develop the signal. The plate was read using a PheraStar Plus plate reader (BMG).

[2] = target: DNA-directed RNA polymerase subunit beta [D516V] (Escherichia coli, D516V)
Description: as §1

[3] = target: DNA-directed RNA polymerase subunit beta [H526D] (Escherichia coli, H526D)
Description: as §1

[4] = target: DNA-directed RNA polymerase subunit beta [S531L] (Escherichia coli, S531L)
Description: as §1

Chain of DNA-directed RNA polymerase subunit beta (P0A8V2 whole entry, the tested form may be a part): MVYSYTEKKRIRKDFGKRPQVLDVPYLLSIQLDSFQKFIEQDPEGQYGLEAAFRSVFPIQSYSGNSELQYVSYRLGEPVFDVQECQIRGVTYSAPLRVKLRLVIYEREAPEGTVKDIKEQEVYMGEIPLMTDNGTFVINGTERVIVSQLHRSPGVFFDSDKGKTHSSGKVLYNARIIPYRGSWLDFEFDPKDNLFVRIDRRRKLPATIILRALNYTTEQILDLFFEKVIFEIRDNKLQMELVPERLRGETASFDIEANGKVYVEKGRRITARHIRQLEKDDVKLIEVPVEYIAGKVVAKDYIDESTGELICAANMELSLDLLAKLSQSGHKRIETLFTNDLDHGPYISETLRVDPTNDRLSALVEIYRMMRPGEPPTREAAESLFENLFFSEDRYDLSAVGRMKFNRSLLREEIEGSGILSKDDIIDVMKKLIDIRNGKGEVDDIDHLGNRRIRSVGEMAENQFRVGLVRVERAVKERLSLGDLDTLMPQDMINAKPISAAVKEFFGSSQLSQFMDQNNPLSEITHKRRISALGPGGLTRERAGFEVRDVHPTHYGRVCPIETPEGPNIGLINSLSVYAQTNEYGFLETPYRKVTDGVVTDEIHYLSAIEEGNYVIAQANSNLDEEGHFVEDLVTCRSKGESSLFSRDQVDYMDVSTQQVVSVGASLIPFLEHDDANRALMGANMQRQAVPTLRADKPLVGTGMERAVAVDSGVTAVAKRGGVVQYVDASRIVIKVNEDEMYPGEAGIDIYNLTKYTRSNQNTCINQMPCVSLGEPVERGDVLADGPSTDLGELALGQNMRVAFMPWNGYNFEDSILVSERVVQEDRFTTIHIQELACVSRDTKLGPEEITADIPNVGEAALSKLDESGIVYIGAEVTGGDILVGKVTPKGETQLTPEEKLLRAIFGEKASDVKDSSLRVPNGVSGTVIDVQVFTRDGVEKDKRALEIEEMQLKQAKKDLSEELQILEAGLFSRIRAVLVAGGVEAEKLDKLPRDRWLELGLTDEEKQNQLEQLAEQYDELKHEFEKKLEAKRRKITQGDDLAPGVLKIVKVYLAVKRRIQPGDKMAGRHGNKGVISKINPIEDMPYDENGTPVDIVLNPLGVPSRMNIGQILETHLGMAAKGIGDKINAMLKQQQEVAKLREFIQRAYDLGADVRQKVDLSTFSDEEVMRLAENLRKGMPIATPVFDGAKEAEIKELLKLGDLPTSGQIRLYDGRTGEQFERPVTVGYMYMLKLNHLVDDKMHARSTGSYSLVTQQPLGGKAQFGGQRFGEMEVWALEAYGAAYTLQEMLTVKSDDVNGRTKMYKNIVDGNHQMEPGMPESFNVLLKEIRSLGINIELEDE

Row | SMILES | IC50 [1] | IC50 [2] [µM] | IC50 [3] [µM] | IC50 [4] [µM]
1 | CO[C@H]1/C=C/O[C@@]2(C)Oc3c(C)c(O)c4c(O)c(cc(O)c4c3C2=O)NC(=O)/C(C)=C\C=C\[C@H](C)[C@H](O)[C@@H](C)[C@@H](O)[C@@H](C)[C@H](OC(C)=O)[C@@H]1C [CB-01-11] | 0.03 µM and 0.02 µM | 70 | > 100 | 80
2 | CC(C)Cc1nnc2c(C(=O)NC3c4ccccc4-c4ccccc43)cccn12 [MRL-436] | 2 µM and 3 µM | 4 | 3 | 4
